Source: patent publication US10550111B2, “Pyrimidine urea compound containing isoxazolines and use thereof” (SHENYANG SINOCHEM AGROCHEMICALS R&D CO., LTD, priority 2014, dated 2020)

What was measured:
Format in all cases: in vivo
[1] = system: Abutilon theophrasti Medic.; assay: Bioassay of herbicidal activity in greenhouse (further screening)
Description: (§1) Determination of herbicidal activity of compounds of the present invention against weeds was carried out by the following procedures:
(§2) Seeds of monocotyledonous and dicotyledonous weeds were sown in nutrition soil in paper pot (7 cm diameter), covered with soil in 1 cm and grown in the greenhouse under good growth conditions (temperature, atmospheric humidity, water supply). The compounds of the present invention as emulsifiable concentrate, were applied in pre-emergence and post-emergence treatment by track sprayer (Engineer Research Ltd., pressure 1.95 kg/cm^2, volume 500 L/hm^2, track speed 1.48 km/h). Pre-emergence treatment was conducted after seeding 24 hours and post-emergence treatment was done when the respective weeds reached predetermined leaf stage (grass weed 2- to 3-leaf stage, broad-leaf weed 2- to 4-leaf stage), the state of growth of the respective weeds were visually observed to determine the growth inhibition rate (%) in accordance with the following evaluation standard.
(§3) Growth inhibition rate (%): 0=no discernible action: 100=all weeds dead or not emerged.

[2] = system: Echinochloa crus-galli (L.) Beauv.; assay: as above
Description: as §1, §2, §3

[3] = system: Setaria glauca (L.) Beauv.; assay: as above
Description: as §1, §2, §3

Zinnia elegans Jacq. = assay: as above
Description: as §1, §2, §3

[4] = system: broad-leaf weeds and grass weeds; assay: General screening of herbicidal activity in greenhouse; details: 1000 g a.i./hm^2;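 note: 0 means no visible effect and 100 means all weeds dead or not emerged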
Description: as §1, §2, §3

Cn1c(C(F)(F)F)cc(=O)n(-c2cc(C3=NOC(C)(C(=O)OCC4CCCO4)C3)c(Cl)cc2F)c1=O (stereo not shown) [Compound 398]
Growth inhibition rate, Post-emergence treatment, Abutilon theophrasti Medic. ([1]; dose 7.5 g a.i./hm^2): 98% | Growth inhibition rate, Post-emergence treatment, Abutilon theophrasti Medic. ([1]; dose 15 g a.i./hm^2): 98% | Growth inhibition rate, Post-emergence treatment, Abutilon theophrasti Medic. ([1]; dose 30.0 g a.i./hm^2): 100% | Growth inhibition rate, Post-emergence treatment, Abutilon theophrasti Medic. ([1]; dose 60.0 g a.i./hm^2): 100% | Growth inhibition rate, Post-emergence treatment, Abutilon theophrasti Medic. ([1]; dose 120.0 g a.i./hm^2): 100% | Growth inhibition rate, Post-emergence treatment, Echinochloa crus-galli (L.) Beauv. ([2]; dose 7.5 g a.i./hm^2): 65% | Growth inhibition rate, Post-emergence treatment, Echinochloa crus-galli (L.) Beauv. ([2]; dose 15 g a.i./hm^2): 75% | Growth inhibition rate, Post-emergence treatment, Echinochloa crus-galli (L.) Beauv. ([2]; dose 30.0 g a.i./hm^2): 95% | Growth inhibition rate, Post-emergence treatment, Echinochloa crus-galli (L.) Beauv. ([2]; dose 60.0 g a.i./hm^2): 100% | Growth inhibition rate, Post-emergence treatment, Echinochloa crus-galli (L.) Beauv. ([2]; dose 120.0 g a.i./hm^2): 100% | Growth inhibition rate, Post-emergence treatment, Setaria glauca (L.) Beauv. ([3]; dose 7.5 g a.i./hm^2): 55% | Growth inhibition rate, Post-emergence treatment, Setaria glauca (L.) Beauv. ([3]; dose 15 g a.i./hm^2): 95% | Growth inhibition rate, Post-emergence treatment, Setaria glauca (L.) Beauv. ([3]; dose 30.0 g a.i./hm^2): 100% | Growth inhibition rate, Post-emergence treatment, Setaria glauca (L.) Beauv. ([3]; dose 60.0 g a.i./hm^2): 100% | Growth inhibition rate, Post-emergence treatment, Setaria glauca (L.) Beauv. ([3]; dose 120.0 g a.i./hm^2): 100% | Growth inhibition rate, Post-emergence treatment, Zinnia elegans Jacq. (Zinnia elegans Jacq.; dose 7.5 g a.i./hm^2): 65% | Growth inhibition rate, Post-emergence treatment, Zinnia elegans Jacq. (Zinnia elegans Jacq.; dose 15 g a.i./hm^2): 90% | Growth inhibition rate, Post-emergence treatment, Zinnia elegans Jacq. (Zinnia elegans Jacq.; dose 30.0 g a.i./hm^2): 100% | Growth inhibition rate, Post-emergence treatment, Zinnia elegans Jacq. (Zinnia elegans Jacq.; dose 60.0 g a.i./hm^2): 100% | Growth inhibition rate, Post-emergence treatment, Zinnia elegans Jacq. (Zinnia elegans Jacq.; dose 120.0 g a.i./hm^2): 100% | pre-emergence and post-emergence herbicidal activity against broad-leaf weeds and grass weeds [4]: good

Cn1c(C(F)(F)F)cc(=O)n(-c2cc(C3=NOC(C)(C(N)=O)C3)c(Cl)cc2F)c1=O (stereo not shown) [Compound 22]
Growth inhibition rate, Post-emergence treatment, Abutilon theophrasti Medic. ([1]; dose 37.5 g a.i./hm^2): 30% | Growth inhibition rate, Post-emergence treatment, Abutilon theophrasti Medic. ([1]; dose 150 g a.i./hm^2): 55% | Growth inhibition rate, Post-emergence treatment, Abutilon theophrasti Medic. ([1]; dose 600 g a.i./hm^2): 100% | Growth inhibition rate, Pre-emergence treatment, Abutilon theophrasti Medic. ([1]; dose 37.5 g a.i./hm^2): 0% | Growth inhibition rate, Pre-emergence treatment, Abutilon theophrasti Medic. ([1]; dose 150 g a.i./hm^2): 0% | Growth inhibition rate, Pre-emergence treatment, Abutilon theophrasti Medic. ([1]; dose 600 g a.i./hm^2): 0% | Growth inhibition rate, Post-emergence treatment, Echinochloa crus-galli (L.) Beauv. ([2]; dose 37.5 g a.i./hm^2): 0% | Growth inhibition rate, Post-emergence treatment, Echinochloa crus-galli (L.) Beauv. ([2]; dose 150 g a.i./hm^2): 5% | Growth inhibition rate, Post-emergence treatment, Echinochloa crus-galli (L.) Beauv. ([2]; dose 600 g a.i./hm^2): 10% | Growth inhibition rate, Pre-emergence treatment, Echinochloa crus-galli (L.) Beauv. ([2]; dose 37.5 g a.i./hm^2): 0% | Growth inhibition rate, Pre-emergence treatment, Echinochloa crus-galli (L.) Beauv. ([2]; dose 150 g a.i./hm^2): 0% | Growth inhibition rate, Pre-emergence treatment, Echinochloa crus-galli (L.) Beauv. ([2]; dose 600 g a.i./hm^2): 0% | Growth inhibition rate, Post-emergence treatment, Setaria glauca (L.) Beauv. ([3]; dose 37.5 g a.i./hm^2): 10% | Growth inhibition rate, Post-emergence treatment, Setaria glauca (L.) Beauv. ([3]; dose 150 g a.i./hm^2): 10% | Growth inhibition rate, Post-emergence treatment, Setaria glauca (L.) Beauv. ([3]; dose 600 g a.i./hm^2): 15% | Growth inhibition rate, Pre-emergence treatment, Setaria glauca (L.) Beauv. ([3]; dose 37.5 g a.i./hm^2): 0% | Growth inhibition rate, Pre-emergence treatment, Setaria glauca (L.) Beauv. ([3]; dose 150 g a.i./hm^2): 0% | Growth inhibition rate, Pre-emergence treatment, Setaria glauca (L.) Beauv. ([3]; dose 600 g a.i./hm^2): 0% | Growth inhibition rate, Post-emergence treatment, Zinnia elegans Jacq. (Zinnia elegans Jacq.; dose 37.5 g a.i./hm^2): 55% | Growth inhibition rate, Post-emergence treatment, Zinnia elegans Jacq. (Zinnia elegans Jacq.; dose 150 g a.i./hm^2): 90% | Growth inhibition rate, Post-emergence treatment, Zinnia elegans Jacq. (Zinnia elegans Jacq.; dose 600 g a.i./hm^2): 95% | Growth inhibition rate, Pre-emergence treatment, Zinnia elegans Jacq. (Zinnia elegans Jacq.; dose 37.5 g a.i./hm^2): 0% | Growth inhibition rate, Pre-emergence treatment, Zinnia elegans Jacq. (Zinnia elegans Jacq.; dose 150 g a.i./hm^2): 0% | Growth inhibition rate, Pre-emergence treatment, Zinnia elegans Jacq. (Zinnia elegans Jacq.; dose 600 g a.i./hm^2): 0% | pre-emergence and post-emergence herbicidal activity against broad-leaf weeds and grass weeds [4]: good
